In article PMC5431342, “Discovery of an enzyme and substrate selective inhibitor of ADAM10 using an exosite-binding glycosylated substrate” (Scientific Reports, 2016):

Experiments:
ADAM10 [1] = biological target: T1, ADAM10 (Homo sapiens, UniProt O14672); assay: ADAM10 non-glycosylated substrate assay; type: biochemical; conditions: non-glycosylated substrate
T1 construct: purchased R&D Systems 936-AD
T1 sequence (O14672 214-748): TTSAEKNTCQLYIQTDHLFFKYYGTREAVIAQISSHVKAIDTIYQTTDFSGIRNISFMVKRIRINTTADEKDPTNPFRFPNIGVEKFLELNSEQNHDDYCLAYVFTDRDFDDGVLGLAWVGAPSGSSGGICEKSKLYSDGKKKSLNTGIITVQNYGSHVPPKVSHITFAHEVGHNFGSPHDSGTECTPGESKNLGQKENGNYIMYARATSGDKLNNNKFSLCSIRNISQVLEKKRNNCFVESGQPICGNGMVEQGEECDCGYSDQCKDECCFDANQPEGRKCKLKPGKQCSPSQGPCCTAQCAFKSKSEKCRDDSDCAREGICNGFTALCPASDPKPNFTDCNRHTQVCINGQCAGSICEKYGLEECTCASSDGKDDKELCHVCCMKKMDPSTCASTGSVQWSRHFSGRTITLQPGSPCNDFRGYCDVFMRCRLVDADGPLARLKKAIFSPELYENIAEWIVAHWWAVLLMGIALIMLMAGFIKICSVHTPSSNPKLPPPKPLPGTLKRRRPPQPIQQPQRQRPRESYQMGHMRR
Excerpt: Additionally, we synthesized a non-glycosylated version, E(Edans)-[…]-K(Dabcyl), to be used as a control in the follow-up studies.

ADAM10 [2] = biological target: T1, ADAM10; assay: ADAM10 glycosylated substrate uHTS/HTS assay; type: biochemical
Description: To enable uHTS both ADAM10 and ADAM17 glycosylated substrate[13] (Fig. 1A) assays were miniaturized to 1536 well plate format. The workflow of the assays in 384 well plate format was recaptured in 1536 well plate format and assay volume was scaled down to 5 µL.
Both assays followed the same general protocol. […] Reactions were incubated at RT for 2 h, after which the fluorescence was measured using Perkin Elmer Viewlux multimode microplate imager (λexcitation = 360 nm, λemission = 460 nm). Final concentration of test compounds in assays was 7.0 µM.
The miniaturized 1536-well plate format ADAM10 and ADAM17 assays were used to screen a collection of ≈370,000 compounds (MLSMR library, provided by the NIH) on the automated Kalypsys/GNF platform at the Scripps Research Institute Molecular Screening Center (SRIMSC, Jupiter, FL. More details at http://hts.florida.scripps.edu/). […] Both uHTS campaigns were run separately but in a similar manner. Briefly, the first step was the primary screen of all MLSMR’s test compounds as singlicate against the ADAM10 or ADAM17 target at a final concentration of 7.0 μM. Next, compounds selected as primary hits were cherry-picked and retested in triplicate against the primary screen target and its anti-target (ADAM17 for the ADAM10 screening effort, and vice-versa) at the same final concentration of 7.0 μM. […] All data generated during this effort were uploaded to the SRIMSC’s institutional screening database (Assay Explorer, Symyx). Sample to background (S/B) ratios, as well as Z and Z′ values were calculated on a per-plate basis as described before. Curve fitting and resulting IC50 determinations were performed as previously reported.

[3] = tested on: shedding of CXCL16 in A549 cells; assay: CXCL16 shedding inhibition (ELISA); type: cell-based, human
Description: A549 cells were seeded in 12-well plates and grown to confluency in DMEM supplemented with 10% FBS and 1% P/S. Subsequently, cells were starved serum-free for 4 h, incubated for 1 h with GI 254023X or CID 3117694 (concentrations as indicated) or DMSO (vehicle, 0.1%) and afterwards stimulated with 10 ng/mL TNF and 10 ng/mL IFN for 24 h or left untreated in the presence of inhibitors or DMSO. Supernatants (500 µL) were harvested and centrifuged for 10 min at 16100 g and 4 °C. […] of CXCL16 were measured using the DuoSet human CXCL16 Elisa Kit (R&D systems, Wiesbaden, Germany). Samples were stored at −80 °C and diluted 2-fold after careful thawing. The standard ranged from 0 to 25,000 pg/mL with a detection limit of 391 pg/mL. For detection of soluble syndecan-4, conditioned media (200 µL) were 2-fold diluted in blotting buffer (0.15 M NaCl buffered to pH 4.5 with 50 mM sodium acetate, and with 0.1% Triton X-100), and applied to cationic polyvinylidene difluoride-based membranes (Hybond-N, Amersham Biosciences, Freiburg, Germany) under vacuum in a dot blot apparatus (Amersham Biosciences). The membranes were blocked for 1 h with PBS-T supplemented with 1% bovine serum albumin and 3% milk powder. Human syndecan-4 was detected by incubating membranes overnight at 4 °C with mouse anti-syndecan-4 mAb (0.6 µg/mL) followed by incubation with POD-coupled goat anti-mouse Ab (27 ng/mL in PBS, Jackson Immunoresearch). Chemiluminescence was recorded and quantified using the luminescent image analyzer LAS3000 substrate after addition of ECL advanced substrate (Amersham Biosciences).

[4] = tested on: shedding of HER2 from the surface of BT474 cells; assay: HER2 shedding inhibition (AlphaLISA soluble HER2); type: cell-based; conditions: Homo sapiens, BT-474, 48 h
Description: To determine the effect of CID 3117694 on the release of HER2, an AlphaLISA soluble HER2 assay kit was utilized (Perkin Elmer # AL234 C/F). Briefly, 20,000 BT474 (HER2 positive) breast cancer cells were seeded in 200 µL of complete Hybricare media in 96 well plates. After 4 h, media was aspirated and CID 3117694 (3.125–100 µM) and controls (50 µM marimastat and GI 254023X)[11] were added in serum-free media. Cells were incubated for 48 h at 37 °C with 5% CO2 and under a humidified atmosphere. After incubation, 5 µL of supernatant was transferred into white opaque 384 well plate for HER2 AlphaLISA assay.

COc1cccc(C(=O)NNC(=O)C(=O)Nc2ccc(C)c(Cl)c2)c1 [CID 3117694]
IC50 (ADAM10 [1]): > 100 µM | difference in potency, 0.5 hour pre-incubation versus no incubation (ADAM10 [2]): approximately 40 fold | IC50 (ADAM10 [2]; 1 h pre-incubation): 0.7 ± 0.5 µM | IC50 (ADAM10 [2]; 4 h pre-incubation): 0.4 ± 0.3 µM | difference in in vitro potency for ADAM10, GI 254023X versus CID 3117694 (ADAM10 [2]; IC50 5.3 nM versus 1.1 µM): ~200 fold | IC50 (ADAM10 [2]; no pre-incubation with ADAM10): 40 ± 5 µM | inhibition profile (ADAM10 [2]; no pre-incubation with ADAM10): partial inhibition profile | IC50 (ADAM10 [2]; original uHTS dose response, 10-point 1:3 dilutions starting at 70 µM): 6.5 µM | IC50 (ADAM10 [2]; reordered powder, HTS assay, glycosylated substrate, 0.5 h pre-incubation): 1.1 µM | inhibition of cytokine-inducible shedding of CXCL16 ([3]; TNF/IFN stimulation 24 h): inhibited cytokine-inducible | inhibition of constitutive shedding of CXCL16 ([3]; unstimulated): not the constitutive shedding | IC50 [4]: 30 ± 2.5 µM
